Patent publication US12673945B2, “3-((8-((1H-pyrazol-4-yl)amino)imidazo[1,2-a]pyridin-3-yl)ethinyl)-n-phenylbenzamide derivative, method for preparing same, and pharmaceutical composition containing same as active ingredient for prevention or treatment of cancer” (DAEGU-GYEONGBUK MEDICAL INNOVATION FOUNDATION, priority 2020, dated 2026)

Key:
Assay in all cases: scanMAX Kinase panel (DiscoverX)
Format in all cases: binding
[1] = target: T1, EPHA4 (Homo sapiens, UniProt P54764); details: read-out: % Cont @ 1 uM
T1 construct: purchased DiscoverX scanMAX Kinase panel
Description: (§1) Among the example compounds of the present invention, the enzyme (kinase) selectivity of the selected compounds of Examples 1 and 4 was measured by requesting DiscoverX. At this time, the experiment was performed using a panel for scanMAX™ Kinase. The concentration of the drug treated to the enzyme was 1 μM in DMSO, and the percentage control (% control) was determined by the method shown in Equation 1 below. (Example Compound−Positive Control)/(Negative Control−Positive control)×100 [Equation 1]

[2] = target: T2, YSK4 (Homo sapiens, UniProt Q56UN5); details: read-out: % Cont @ 1 uM
T2 construct: purchased DiscoverX scanMAX Kinase panel
Description: as §1

[3] = target: T3, AXL (Homo sapiens, UniProt P30530); details: read-out: % Cont @ 1 uM
T3 construct: purchased DiscoverX scanMAX Kinase panel
Description: as §1

[4] = target: T4, p38-alpha (Homo sapiens, UniProt Q16539)
T4 construct: purchased DiscoverX scanMAX Kinase panel
Description: as §1

[5] = target: T5, FLT3 (Homo sapiens, UniProt P36888); details: read-out: % Cont @ 1 uM
T5 construct: purchased DiscoverX scanMAX Kinase panel
Description: as §1

[6] = target: T6, TEC (Homo sapiens, UniProt P42680); details: read-out: % Cont @ 1 uM
T6 construct: purchased DiscoverX scanMAX Kinase panel
Description: as §1

[7] = target: T7, FGFR1 (Homo sapiens, UniProt P11362); details: read-out: % Cont @ 1 uM
T7 construct: purchased DiscoverX scanMAX Kinase panel
Description: as §1

[8] = target: T8, ABL1(F317I)-nonphosphorylated (Homo sapiens, UniProt P00519, F317I); details: read-out: % Cont @ 1 uM
T8 construct: purchased DiscoverX
Description: as §1

[9] = target: T9, TRKC (Homo sapiens, UniProt Q16288); details: read-out: % Cont @ 1 uM
T9 construct: purchased DiscoverX scanMAX Kinase panel
Description: as §1

[10] = target: T10, MERTK (Homo sapiens, UniProt Q12866); details: read-out: % Cont @ 1 uM
T10 construct: purchased DiscoverX scanMAX Kinase panel
Description: as §1

[11] = target: T11, ABL1-phosphorylated (Homo sapiens, UniProt P00519); details: read-out: % Cont @ 1 uM
T11 construct: purchased DiscoverX scanMAX Kinase panel
Description: as §1

[12] = target: T12, EPHA8 (Homo sapiens, UniProt P29322); details: read-out: % Cont @ 1 uM
T12 construct: purchased DiscoverX scanMAX Kinase panel
Description: as §1

[13] = target: T13, TNIK (Homo sapiens, UniProt Q9UKE5); details: read-out: % Cont @ 1 uM
T13 construct: purchased DiscoverX scanMAX Kinase panel
Description: as §1

[14] = target: T14, CDK7 (Homo sapiens, UniProt P50613); details: read-out: % Cont @ 1 uM
T14 construct: purchased DiscoverX scanMAX Kinase panel
Description: as §1

[15] = target: T15, KIT(D816H) (Homo sapiens, UniProt P10721, D816H); details: read-out: % Cont @ 1 uM
T15 construct: purchased DiscoverX scanMAX Kinase panel
Description: as §1

[16] = target: T16, MAP4K2 (Homo sapiens, UniProt Q12851); details: read-out: % Cont @ 1 uM
T16 construct: purchased DiscoverX scanMAX Kinase panel
Description: as §1

[17] = target: T17, IRAK1 (Homo sapiens, UniProt P51617); details: read-out: % Cont @ 1 uM
T17 construct: purchased DiscoverX scanMAX Kinase panel
Description: as §1

[18] = target: T18, PFTAIRE2 (Homo sapiens, UniProt Q96Q40); details: read-out: % Cont @ 1 uM
T18 construct: purchased DiscoverX scanMAX Kinase panel
Description: as §1

[19] = target: T19, CDC2L1 (Homo sapiens, UniProt P21127); details: read-out: % Cont @ 1 uM
T19 construct: purchased DiscoverX scanMAX Kinase panel
Description: as §1

[20] = target: T20, KIT(D816V) (Homo sapiens, UniProt P10721, D816V); details: read-out: % Cont @ 1 uM
T20 construct: purchased DiscoverX scanMAX Kinase panel
Description: as §1

[21] = target: T21, EPHB2 (Homo sapiens, UniProt P29323)
T21 construct: purchased DiscoverX scanMAX Kinase panel
Description: as §1

[22] = target: T22, IRAK4 (Homo sapiens, UniProt Q9NWZ3)
T22 construct: purchased DiscoverX scanMAX Kinase panel
Description: as §1

[23] = target: T23, EGFR(G719C) (Homo sapiens, UniProt P00533, G719C)
T23 construct: purchased DiscoverX scanMAX Kinase panel
Description: as §1

[24] = target: T24, YES (Homo sapiens, UniProt P07947); details: read-out: % Cont @ 1 uM
T24 construct: purchased DiscoverX scanMAX Kinase panel
Description: as §1

[25] = target: T25, LCK (Homo sapiens, UniProt P06239); details: read-out: % Cont @ 1 uM
T25 construct: purchased DiscoverX scanMAX Kinase panel
Description: as §1

[26] = target: T26, EGFR(L858R) (Homo sapiens, UniProt P00533, L858R)
T26 construct: purchased DiscoverX scanMAX Kinase panel
Description: as §1

[27] = target: T27, BRAF (Homo sapiens, UniProt P15056); details: read-out: % Cont @ 1 uM
T27 construct: purchased DiscoverX scanMAX Kinase panel
Description: as §1

[28] = target: T28, TAOK3 (Homo sapiens, UniProt Q9H2K8); details: read-out: % Cont @ 1 uM
T28 construct: purchased DiscoverX scanMAX Kinase panel
Description: as §1

[29] = target: T29, DDR2 (Homo sapiens, UniProt Q16832); details: read-out: % Cont @ 1 uM
T29 construct: purchased DiscoverX scanMAX Kinase panel
Description: as §1

[30] = target: T30, CIT (Homo sapiens, UniProt O14578)
T30 construct: purchased DiscoverX scanMAX Kinase panel
Description: as §1

[31] = target: T31, KIT(A829P) (Homo sapiens, UniProt P10721, A829P); details: read-out: % Cont @ 1 uM
T31 construct: purchased DiscoverX scanMAX Kinase panel
Description: as §1

[32] = target: T32, LTK (Homo sapiens, UniProt P29376); details: read-out: % Cont @ 1 uM
T32 construct: purchased DiscoverX scanMAX Kinase panel
Description: as §1

[33] = target: T33, FRK (Homo sapiens, UniProt P42685); details: read-out: % Cont @ 1 uM
T33 construct: purchased DiscoverX scanMAX Kinase panel
Description: as §1

[34] = target: T34, MAP4K3 (Homo sapiens, UniProt Q8IVH8)
T34 construct: purchased DiscoverX scanMAX Kinase panel
Description: as §1

[35] = target: T35, RIPK1 (Homo sapiens, UniProt Q13546); details: read-out: % Cont @ 1 uM
T35 construct: purchased DiscoverX scanMAX Kinase panel
Description: as §1

[36] = target: T36, MINK (Homo sapiens, UniProt Q8N4C8); details: read-out: % Cont @ 1 uM
T36 construct: purchased DiscoverX scanMAX Kinase panel
Description: as §1

[37] = target: T37, KIT (Homo sapiens, UniProt P10721); details: read-out: % Cont @ 1 uM
T37 construct: purchased DiscoverX scanMAX Kinase panel
Description: as §1

[38] = target: T38, TXK (Homo sapiens, UniProt P42681); details: read-out: % Cont @ 1 uM
T38 construct: purchased DiscoverX scanMAX Kinase panel
Description: as §1

[39] = target: T39, ABL1(H396P)-phosphorylated (Homo sapiens, UniProt P00519, H396P); details: read-out: % Cont @ 1 uM
T39 construct: purchased DiscoverX
Description: as §1

T31 sequence (P10721 26-976 A829P): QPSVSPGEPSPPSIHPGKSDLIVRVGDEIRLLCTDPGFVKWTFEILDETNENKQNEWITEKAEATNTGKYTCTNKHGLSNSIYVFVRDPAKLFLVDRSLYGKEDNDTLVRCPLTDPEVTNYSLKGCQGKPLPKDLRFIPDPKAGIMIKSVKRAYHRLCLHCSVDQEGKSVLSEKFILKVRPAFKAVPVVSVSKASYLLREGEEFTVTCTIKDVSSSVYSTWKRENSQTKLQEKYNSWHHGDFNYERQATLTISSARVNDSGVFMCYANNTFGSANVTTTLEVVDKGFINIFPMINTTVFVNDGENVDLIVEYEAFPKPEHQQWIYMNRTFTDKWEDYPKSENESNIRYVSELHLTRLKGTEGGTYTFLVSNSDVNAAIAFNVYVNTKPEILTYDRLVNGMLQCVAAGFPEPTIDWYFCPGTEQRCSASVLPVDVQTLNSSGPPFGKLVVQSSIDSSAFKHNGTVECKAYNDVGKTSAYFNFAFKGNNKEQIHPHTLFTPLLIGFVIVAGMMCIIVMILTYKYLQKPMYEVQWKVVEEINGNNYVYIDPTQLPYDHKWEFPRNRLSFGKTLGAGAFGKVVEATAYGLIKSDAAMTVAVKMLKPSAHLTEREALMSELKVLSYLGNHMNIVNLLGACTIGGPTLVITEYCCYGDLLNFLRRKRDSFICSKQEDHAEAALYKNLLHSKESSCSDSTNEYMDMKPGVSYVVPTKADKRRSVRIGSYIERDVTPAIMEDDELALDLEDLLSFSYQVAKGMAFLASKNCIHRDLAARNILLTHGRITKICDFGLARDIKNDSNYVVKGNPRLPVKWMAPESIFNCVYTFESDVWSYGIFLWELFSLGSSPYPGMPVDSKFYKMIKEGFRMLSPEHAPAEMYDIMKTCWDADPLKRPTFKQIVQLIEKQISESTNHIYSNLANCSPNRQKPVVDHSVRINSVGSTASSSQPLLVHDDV
T6 sequence (P42680 whole entry): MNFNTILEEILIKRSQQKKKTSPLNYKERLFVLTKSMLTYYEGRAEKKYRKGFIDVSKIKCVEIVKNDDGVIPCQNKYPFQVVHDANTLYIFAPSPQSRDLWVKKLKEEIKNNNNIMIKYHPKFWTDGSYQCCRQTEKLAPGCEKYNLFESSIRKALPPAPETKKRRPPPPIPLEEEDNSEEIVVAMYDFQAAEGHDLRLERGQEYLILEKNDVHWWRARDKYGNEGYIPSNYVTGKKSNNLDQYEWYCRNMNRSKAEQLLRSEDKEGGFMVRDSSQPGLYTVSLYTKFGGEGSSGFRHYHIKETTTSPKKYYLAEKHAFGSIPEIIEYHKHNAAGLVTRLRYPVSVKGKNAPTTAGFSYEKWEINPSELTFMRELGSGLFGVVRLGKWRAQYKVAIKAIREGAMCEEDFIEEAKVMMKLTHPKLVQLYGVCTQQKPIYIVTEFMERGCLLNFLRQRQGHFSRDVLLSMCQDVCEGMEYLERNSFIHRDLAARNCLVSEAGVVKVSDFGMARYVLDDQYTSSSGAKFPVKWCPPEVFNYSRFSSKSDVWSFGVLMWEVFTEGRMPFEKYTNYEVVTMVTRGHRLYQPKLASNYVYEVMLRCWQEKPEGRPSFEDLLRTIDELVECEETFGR
T18 sequence (Q96Q40 whole entry): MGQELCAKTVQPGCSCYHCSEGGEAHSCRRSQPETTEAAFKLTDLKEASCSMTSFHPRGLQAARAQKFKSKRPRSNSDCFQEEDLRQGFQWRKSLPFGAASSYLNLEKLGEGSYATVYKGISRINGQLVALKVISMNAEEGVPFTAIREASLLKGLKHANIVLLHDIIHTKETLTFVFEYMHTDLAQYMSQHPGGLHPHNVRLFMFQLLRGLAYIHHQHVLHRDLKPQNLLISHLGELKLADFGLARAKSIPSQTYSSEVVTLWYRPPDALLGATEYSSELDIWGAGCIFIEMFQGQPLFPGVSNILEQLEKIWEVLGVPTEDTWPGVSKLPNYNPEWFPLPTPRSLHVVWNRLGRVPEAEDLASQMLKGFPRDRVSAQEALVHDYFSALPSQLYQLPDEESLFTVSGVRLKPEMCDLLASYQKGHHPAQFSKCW
T1 sequence (P54764 20-986): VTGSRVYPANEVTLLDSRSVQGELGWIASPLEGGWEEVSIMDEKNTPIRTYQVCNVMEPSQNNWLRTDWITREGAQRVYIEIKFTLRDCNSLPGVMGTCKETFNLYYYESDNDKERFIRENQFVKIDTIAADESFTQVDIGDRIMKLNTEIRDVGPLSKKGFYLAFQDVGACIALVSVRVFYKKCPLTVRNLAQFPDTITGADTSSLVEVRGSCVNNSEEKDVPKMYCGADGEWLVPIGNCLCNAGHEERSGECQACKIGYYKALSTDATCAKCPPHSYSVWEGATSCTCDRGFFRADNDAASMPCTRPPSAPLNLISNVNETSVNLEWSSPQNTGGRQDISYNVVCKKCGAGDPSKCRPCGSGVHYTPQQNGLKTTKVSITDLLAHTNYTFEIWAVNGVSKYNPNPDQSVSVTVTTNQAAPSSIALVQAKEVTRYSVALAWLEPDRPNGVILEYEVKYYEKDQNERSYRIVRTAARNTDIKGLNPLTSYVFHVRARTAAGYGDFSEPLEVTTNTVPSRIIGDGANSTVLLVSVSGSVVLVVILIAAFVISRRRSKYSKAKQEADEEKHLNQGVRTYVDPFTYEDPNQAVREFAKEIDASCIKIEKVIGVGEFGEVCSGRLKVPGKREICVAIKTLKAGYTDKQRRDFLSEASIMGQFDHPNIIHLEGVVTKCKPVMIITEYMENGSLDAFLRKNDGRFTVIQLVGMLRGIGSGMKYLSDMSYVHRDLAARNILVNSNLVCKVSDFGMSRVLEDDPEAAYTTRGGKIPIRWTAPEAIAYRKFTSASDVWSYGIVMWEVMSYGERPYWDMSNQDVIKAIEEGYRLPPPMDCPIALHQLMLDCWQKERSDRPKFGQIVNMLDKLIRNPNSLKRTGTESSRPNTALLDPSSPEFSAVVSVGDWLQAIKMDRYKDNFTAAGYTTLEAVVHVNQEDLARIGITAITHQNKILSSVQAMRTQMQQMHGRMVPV
T21 sequence (P29323 19-1055): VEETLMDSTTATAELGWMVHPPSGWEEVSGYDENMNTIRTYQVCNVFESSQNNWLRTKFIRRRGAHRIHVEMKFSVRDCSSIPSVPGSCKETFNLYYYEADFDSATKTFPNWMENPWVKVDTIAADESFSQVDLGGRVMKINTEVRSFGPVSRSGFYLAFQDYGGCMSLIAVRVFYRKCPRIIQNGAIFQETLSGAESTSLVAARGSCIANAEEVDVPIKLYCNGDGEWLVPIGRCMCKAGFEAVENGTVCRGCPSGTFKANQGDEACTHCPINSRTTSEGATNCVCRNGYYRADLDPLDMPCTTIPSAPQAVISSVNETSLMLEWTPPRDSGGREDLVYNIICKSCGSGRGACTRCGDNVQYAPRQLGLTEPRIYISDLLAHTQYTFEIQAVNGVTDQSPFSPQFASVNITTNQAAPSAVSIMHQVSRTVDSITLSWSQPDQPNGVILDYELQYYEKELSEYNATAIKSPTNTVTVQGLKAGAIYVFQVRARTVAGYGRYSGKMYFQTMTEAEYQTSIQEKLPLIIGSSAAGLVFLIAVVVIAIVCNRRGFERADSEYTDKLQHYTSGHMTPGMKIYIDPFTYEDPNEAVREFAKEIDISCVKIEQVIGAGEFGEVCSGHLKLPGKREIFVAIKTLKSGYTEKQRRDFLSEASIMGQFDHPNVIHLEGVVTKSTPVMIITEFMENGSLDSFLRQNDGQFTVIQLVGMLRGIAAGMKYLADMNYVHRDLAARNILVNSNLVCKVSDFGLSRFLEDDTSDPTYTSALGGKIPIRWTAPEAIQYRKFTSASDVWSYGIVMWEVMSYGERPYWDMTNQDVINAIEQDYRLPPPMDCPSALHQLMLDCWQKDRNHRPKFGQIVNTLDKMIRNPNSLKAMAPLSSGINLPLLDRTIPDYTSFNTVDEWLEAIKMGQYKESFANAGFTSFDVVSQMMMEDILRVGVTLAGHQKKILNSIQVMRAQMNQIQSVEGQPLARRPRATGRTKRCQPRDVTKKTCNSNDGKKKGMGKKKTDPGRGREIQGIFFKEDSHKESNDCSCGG
T20 sequence (P10721 26-976 D816V): as the sequence (P10721 26-976 A829P) above, with D791V, P804A counted along it
T38 sequence (P42681 whole entry): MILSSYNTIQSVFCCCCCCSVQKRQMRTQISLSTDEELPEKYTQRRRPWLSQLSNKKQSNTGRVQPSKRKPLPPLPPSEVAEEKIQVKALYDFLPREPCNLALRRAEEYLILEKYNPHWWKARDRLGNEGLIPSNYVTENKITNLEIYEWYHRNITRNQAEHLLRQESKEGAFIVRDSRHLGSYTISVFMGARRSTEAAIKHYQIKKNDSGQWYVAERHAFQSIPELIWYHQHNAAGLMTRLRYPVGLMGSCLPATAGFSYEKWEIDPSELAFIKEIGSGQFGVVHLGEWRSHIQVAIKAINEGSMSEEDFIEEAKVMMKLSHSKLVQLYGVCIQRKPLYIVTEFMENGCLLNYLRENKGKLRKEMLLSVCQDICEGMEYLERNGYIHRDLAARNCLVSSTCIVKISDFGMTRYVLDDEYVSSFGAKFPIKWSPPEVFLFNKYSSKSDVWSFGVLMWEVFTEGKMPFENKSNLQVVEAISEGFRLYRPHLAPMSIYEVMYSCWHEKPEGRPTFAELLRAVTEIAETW
T37 sequence (P10721 26-976): as the sequence (P10721 26-976 A829P) above, with P804A counted along it
T4 sequence (Q16539 whole entry): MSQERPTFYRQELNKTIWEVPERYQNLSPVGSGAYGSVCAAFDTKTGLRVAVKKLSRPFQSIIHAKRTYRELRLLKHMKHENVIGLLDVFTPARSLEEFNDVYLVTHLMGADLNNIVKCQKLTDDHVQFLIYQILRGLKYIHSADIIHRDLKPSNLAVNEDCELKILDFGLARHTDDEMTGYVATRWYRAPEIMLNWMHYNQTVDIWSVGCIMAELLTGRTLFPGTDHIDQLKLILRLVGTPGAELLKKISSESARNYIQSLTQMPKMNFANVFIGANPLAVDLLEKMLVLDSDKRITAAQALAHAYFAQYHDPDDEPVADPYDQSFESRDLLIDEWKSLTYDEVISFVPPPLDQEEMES
T15 sequence (P10721 26-976 D816H): as the sequence (P10721 26-976 A829P) above, with D791H, P804A counted along it

Compound Cc1cn(-c2cc(NC(=O)c3cc(C#Cc4cnc5c(Nc6cnn(C)c6)cccn45)c(C)cc3F)cc(C(C)(C)C#N)c2)cn1 [Example 1, N-(3-(2-cyanopropane-2-yl)-5-(4-methyl-1H-imidazol-1-yl)phenyl)-2-fluoro-4-methyl-5-((8-((1-methyl-1H-pyrazol-4-yl)amino)imidazo[1,2-a]pyridin-3-yl)ethynyl)benzamide] has a remaining binding at 1 µM [1] of 26%, a remaining binding at 1 µM [2] of 0.3% and a remaining binding at 1 µM [3] of 14.4%. The “% Cont @ 1 uM” value [4] was 0.65%, the remaining binding at 1 µM [5] was 2% and the remaining binding at 1 µM [6] was 1.3%. It also gave a remaining binding at 1 µM [7] of 1.2%, a remaining binding at 1 µM [8] of 50% and a remaining binding at 1 µM [9] of 0.05%. For the same compound, the remaining binding at 1 µM [10] was 6.1%, the remaining binding at 1 µM [11] was 0.45% and the remaining binding at 1 µM [12] was 0.1%. It also gave a remaining binding at 1 µM [13] of 7.2%, a remaining binding at 1 µM [14] of 4.7% and a percent of control binding at 1 µM [15] of 12%. It also gave a remaining binding at 1 µM [16] of 2.5%, a percent of control binding at 1 µM [17] of 27% and a remaining binding at 1 µM [18] of 4.3%. For the same compound, the remaining binding at 1 µM [19] was 27%, the percent of control binding at 1 µM [20] was 13% and the “% Cont @ 1 uM” value [21] was 6.3%. The “% Cont @ 1 uM” value [22] was 34%, the “% Cont @ 1 uM” value [23] was 5.2% and the remaining binding at 1 µM [24] was 2.5%. The remaining binding at 1 µM [25] was 0.15%, the “% Cont @ 1 uM” value [26] was 5.5% and the remaining binding at 1 µM [27] was 13%. The remaining binding at 1 µM [28] was 1.6%, the remaining binding at 1 µM [29] was 2% and the “% Cont @ 1 uM” value [30] was 0.1%. It also gave a percent of control binding at 1 µM [31] of 1.1%, a remaining binding at 1 µM [32] of 3.4% and a remaining binding at 1 µM [33] of 1.6%. The “% Cont @ 1 uM” value [34] was 4%, the remaining binding at 1 µM [35] was 1.6% and the percent of control binding at 1 µM [36] was 2.4%. It also gave a percent of control binding at 1 µM [37] of 0%, a remaining binding at 1 µM [38] of 1.6% and a remaining binding at 1 µM [39] of 0.55%.
With Cc1cn(-c2cc(NC(=O)c3cc(C#Cc4cnc5c(Nc6cnn(C)c6)cccn45)c(C)cc3F)cc(C(F)(F)F)c2)cn1 [Example 4, 2-fluoro-4-methyl-N-(3-(4-methyl-1H-imidazol-1-yl)-5-(trifluoromethyl)phenyl)-5-((8-((1-methyl-1H-pyrazol-4-yl)amino)imidazo[1,2-a]pyridin-3-yl)ethynyl)benzamide] the remaining binding at 1 µM [1] was 28%, the remaining binding at 1 µM [2] was 3% and the remaining binding at 1 µM [3] was 1.4%. The “% Cont @ 1 uM” value [4] was 49%, the remaining binding at 1 µM [5] was 1.9% and the remaining binding at 1 µM [6] was 46%. It also gave a remaining binding at 1 µM [7] of 27%, a remaining binding at 1 µM [8] of 2.8% and a remaining binding at 1 µM [9] of 1.4%. The remaining binding at 1 µM [10] was 3.3%, the remaining binding at 1 µM [11] was 8.4% and the remaining binding at 1 µM [12] was 1.6%. It also gave a remaining binding at 1 µM [13] of 25%, a remaining binding at 1 µM [14] of 71% and a percent of control binding at 1 µM [15] of 53%. The remaining binding at 1 µM [16] was 70%, the percent of control binding at 1 µM [17] was 100% and the remaining binding at 1 µM [18] was 76%. For the same compound, the remaining binding at 1 µM [19] was 79%, the percent of control binding at 1 µM [20] was 61% and the “% Cont @ 1 uM” value [21] was 32%. For the same compound, the “% Cont @ 1 uM” value [22] was 89%, the “% Cont @ 1 uM” value [23] was 56% and the remaining binding at 1 µM [24] was 10%. For the same compound, the remaining binding at 1 µM [25] was 0.4%, the “% Cont @ 1 uM” value [26] was 57% and the remaining binding at 1 µM [27] was 34%. The remaining binding at 1 µM [28] was 12%, the remaining binding at 1 µM [29] was 6.5% and the “% Cont @ 1 uM” value [30] was 0.45%. The percent of control binding at 1 µM [31] was 2%, the remaining binding at 1 µM [32] was 8.7% and the remaining binding at 1 µM [33] was 26%. The “% Cont @ 1 uM” value [34] was 70%, the remaining binding at 1 µM [35] was 44% and the percent of control binding at 1 µM [36] was 88%. The percent of control binding at 1 µM [37] was 1.6%, the remaining binding at 1 µM [38] was 11% and the remaining binding at 1 µM [39] was 9.6%.
